Experimental data reported in patent US11339169B2, “P2X3 and/or P2X2/3 compounds and methods” (Asana BioSciences, LLC, priority 2016, dated 2022).

Legend:
hP2X3 = biological target: T1, hP2X3 (Homo sapiens, UniProt P56373); assay: FLIPR intracellular calcium assay, hP2X3; assay type: cell-based; details: human P2X3-HEK cells, agonist at EC75
T1 construct: host or cells: HEK (hP2X3-HEK)
T1 sequence (P56373 1-397): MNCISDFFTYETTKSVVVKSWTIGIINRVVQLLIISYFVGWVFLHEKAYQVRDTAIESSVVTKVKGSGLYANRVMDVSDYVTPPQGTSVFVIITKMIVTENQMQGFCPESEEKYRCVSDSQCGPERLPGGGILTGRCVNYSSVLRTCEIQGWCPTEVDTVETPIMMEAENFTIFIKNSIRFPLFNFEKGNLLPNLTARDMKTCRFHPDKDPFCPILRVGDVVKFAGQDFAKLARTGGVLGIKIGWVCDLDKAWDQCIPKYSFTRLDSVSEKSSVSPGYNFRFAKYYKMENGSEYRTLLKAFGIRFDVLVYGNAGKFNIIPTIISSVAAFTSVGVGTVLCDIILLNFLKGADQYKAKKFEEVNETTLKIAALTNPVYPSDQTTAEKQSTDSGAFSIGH
Description: (§1) The FLIPR® assay utilizes cells which express human or rat P2X3 or P2X2/3 receptors. Recombinant cells expressing hP2X3 (Cat #6188) and hP2X2/3 (Cat #6179) were procured from Chantest Corp. Rat P2X2 (NCBI Accession No: U14414) was amplified by PCR from PC12 cDNA (a rat adrenal medulla cell line). The PCR product obtained containing the protein coding sequence of rat P2X2 was cloned into EcoRV-digested and dephosphorylated vector plRES-puro3 within the multiple cloning site (MCS). See, FIG. 1A.
(§2) (i) Intracellular Calcium Assay Protocol for Screening Compounds
(§3) Cryo-vial containing 6×10^6 cells (human P2X3-HEK/human P2X2/3-TRex293/rat P2X2/3-TRex293/rat P2X3 TRex-CHO) was thawed in a 37° C. water bath. Cells were suspended in 20 mL of respective cell plating media (See annexure for composition) in a 50 mL centrifuge tube. The cell viability was checked with the help of Trypan Blue dye. Upon washing, cells were plated in a black 384-well clear bottomed, sterile poly-D-lysine coated plate such that, each well contained 10,000 cells (15,000/well for hP2X3) in 30 μL cell plating media. The plate was incubated in a 5% CO2 incubator at 37° C. for 24 h.
(§4) The next day, prior to the assay, the cell plating media was removed from each well by decanting and gentle tapping. Thirty μL of FLIPR Calcium 4 dye solution was added to each well. The plate was incubated at 37° C. for 45 min (60 min for hP2X3). The plate was next equilibrated at room temperature for 15 minutes before placing it in a 384 well FLIPR for the assay.
(§5) Compounds were dissolved in DMSO and serially diluted following 11 point half log (3.16 fold) dilution with a starting concentration of 2 mM. Dilutions were mixed with assay buffer just before performing the assay.
(§6) Compounds were added to the respective wells of the assay-ready cell plate with the help of the FLIPR and fluorescence readings were captured for 5 min to observe any possible agonistic property of the compounds. The plate was then incubated at room temperature for 15 min. The cells were stimulated with respective agonist EC75 concentration and the fluorescence readings were captured for another 5 min by FLIPR. The difference in fluorescence readings in presence of the compounds were compared with that of the control wells (wells having no compound) to calculate the inhibitory potency of the compounds. The IC50 values of the compounds were determined using the Graph pad Prism software.
(§7) (ii) Cell Plating Media for hP2X3-HEK and hP2X2/3-TRex293 Cells • DMEM/F12 (1:1) HAM media (Invitrogen; Cat #11039) • 1×NEAA (Invitrogen; Cat #11140) • 25 mM HEPES (Invitrogen; Cat #15630) • 1 mM sodium pyruvate (Invitrogen; Cat #11360) • 10% tetracycline negative FBS (PAA; Cat #A15-209) • 1 μg/mL doxycycline (Clontech; Cat #63131) [for hP2X2/3-TRex293 cells only]
(§8) (v) Assay Buffer Composition • HBSS (Invitrogen Cat #14025) • 20 mM HEPES (Invitrogen Cat #15630) • 0.01% F127 (Sigma Cat #P2443) • 1.8 mM CaCl2 (Sigma Cat #C5080) • pH adjusted to 7.4
(§9) (vi) Dye Solution Composition • 1× FLIPR Calcium 4 dye in assay buffer (Molecular devices Cat #R8141) • 1.8 mM Probenecid (Sigma Cat #P8761) • pH adjusted to 7.4

hP2X2/3 = biological target: T2, hP2X2/3 (Homo sapiens, UniProt P56373+Q9UBL9); assay: FLIPR intracellular calcium assay, hP2X2/3; assay type: cell-based; details: human P2X2/3-TRex293 cells, agonist at EC75
T2 construct: host or cells: TRex293 (hP2X2/3-TRex293), doxycycline-induced
T2 sequence (P56373 1-397): T1 sequence (P56373 1-397)
T2 sequence (Q9UBL9 1-471): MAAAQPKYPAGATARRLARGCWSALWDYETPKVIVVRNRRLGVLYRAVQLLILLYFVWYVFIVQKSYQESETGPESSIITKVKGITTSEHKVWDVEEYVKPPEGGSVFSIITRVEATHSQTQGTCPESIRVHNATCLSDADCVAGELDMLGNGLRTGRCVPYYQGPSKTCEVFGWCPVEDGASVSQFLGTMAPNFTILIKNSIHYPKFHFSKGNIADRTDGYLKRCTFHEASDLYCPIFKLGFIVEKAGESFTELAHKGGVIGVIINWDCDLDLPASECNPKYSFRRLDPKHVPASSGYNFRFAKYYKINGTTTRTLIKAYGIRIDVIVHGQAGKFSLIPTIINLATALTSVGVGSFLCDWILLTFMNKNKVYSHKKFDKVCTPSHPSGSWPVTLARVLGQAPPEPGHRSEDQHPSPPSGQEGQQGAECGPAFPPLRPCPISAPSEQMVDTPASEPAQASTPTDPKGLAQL
Description: as §1, §2, §3, §4, §5, §6, §7, §8, §9

Compound | IC50 (hP2X3) [nM] | IC50 (hP2X2/3) [nM]
4-{1-sec-Butyl-7-[((R)-cyclopropyl-quinolin-3-yl-methyl)-amino]-1H-pyrazolo[4,3-d]pyrimidin-5-yl}-piperazine-1-sulfonic Acid Amide [Example 109] | 100 to 1000 | 
CCC(C)n1ncc2nc(-n3cnnn3)nc(N[C@@H](c3cnc4ccccc4c3)C3CC3)c21 (single isomer, unassigned) [Example 78] | 100 to 1000 | 
CCC(C)n1ncc2nc(-n3cnnn3)nc(N[C@@H](c3cnc4ccccc4c3)C3CC3)c21 (single isomer, unassigned) [Example 79] | 100 to 1000 | 1000 to 10000
CC(=O)N1CCN(c2nc(N[C@H](C)c3cnc4ccccc4c3)c3nn(C(C)C)cc3n2)CC1 [Example 1, 1-{4-[2-Isopropyl-7-((R)-1-quinolin-3-yl-ethylamino)-2H-pyrazolo[4,3-d]pyrimidin-5-yl]-piperazin-1-yl}-ethanone] | 1 to 100 | > 10000
CC(=O)N1CCN(c2nc(NC(C)c3cnc4ccccc4c3)c3nn(C(C)C)cc3n2)CC1 (stereo not drawn) [Example 2] | 100 to 1000 | 
CC(=O)N1CCN(c2nc(NC(C)(C)Cc3ccc(Cl)cc3)c3nn(C(C)C)cc3n2)CC1 [Example 3] | 100 to 1000 | 1000 to 10000
CCC(C)n1cc2nc(N3CCN(C(C)=O)CC3)nc(NC(C)c3cnc4ccccc4c3)c2n1 (stereo not drawn) [Example 4] | 1 to 100 | > 10000
CCC(C)n1cc2nc(N3CCN(C(C)=O)CC3)nc(N[C@H](C)c3cnc4ccccc4c3)c2n1 (stereo partly drawn) [Example 5] | 1 to 100 | > 10000
CCC(C)n1cc2nc(N3CCN(C(C)=O)CC3)nc(NC(C)(C)Cc3ccc(Cl)cc3)c2n1 (stereo not drawn) [Example 6] | 100 to 1000 | 1000 to 10000
CC(=O)N1CCN(c2nc(N[C@H](C)c3cnc4ccccc4c3)c3nn(CC(C)C)cc3n2)CC1 [Example 7] | 100 to 1000 | > 10000
CCC(CC)n1cc2nc(N3CCN(C(C)=O)CC3)nc(N[C@H](C)c3cnc4ccccc4c3)c2n1 [Example 8] | 1 to 100 | 
CC(=O)N1CCN(c2nc(N[C@H](C)c3cnc4ccccc4c3)c3nn(-c4ccccc4)cc3n2)CC1 [Example 9, 1-{4-[2-Phenyl-7-((R)-1-quinolin-3-yl-ethylamino)-2H-pyrazolo[4,3-d]pyrimidin-5-yl]-piperazin-1-yl} ethanone] | 100 to 1000 | 
CC(=O)N1CCN(c2nc(NC(C)c3cnc4ccccc4c3)c3c(cnn3C(C)C)n2)CC1 (stereo not drawn) [Example 11] | 1 to 100 | 1000 to 10000
CC(=O)N1CCN(c2nc(N[C@H](C)c3cnc4ccccc4c3)c3c(cnn3C(C)C)n2)CC1 [Example 12] | 1 to 100 | 1000 to 10000
CC(=O)N1CCN(c2nc(NC(C)(C)Cc3ccc(Cl)cc3)c3c(cnn3C(C)C)n2)CC1 [Example 13] | 1 to 100 | 1000 to 10000
CC(=O)N1CCN(c2nc(NCc3cnc4ccccc4c3)c3c(cnn3C(C)C)n2)CC1 [Example 14] | 100 to 1000 | > 10000
CC(C)n1ncc2nc(N3CCN(C)C(=O)C3)nc(N[C@H](C)c3cnc4ccccc4c3)c21 [Example 15] | 1 to 100 | 1000 to 10000
CC(=O)N1CCN(c2nc(N[C@@H](C)c3cnc4ccccc4c3)c3c(cnn3C(C)C)n2)CC1 [Example 17] | 100 to 1000 | 

Compound | IC50 (hP2X3) [nM] | IC50 (hP2X2/3) [nM]
CCC(C)n1ncc2nc(N3CCN(C)C(=O)C3)nc(N[C@H](C)c3cnc4ccccc4c3)c21 (stereo partly drawn) [Example 20] | 100 to 1000 | 
CC(=O)N1CCN(c2nc(N[C@H](C)c3cnc4ccccc4c3)c3c(cnn3CC3CCOCC3)n2)CC1 [Example 26] | 100 to 1000 | 
CC(=O)N1CCN(c2nc(N[C@H](C)c3cnc4ccccc4c3)c3c(cnn3C3CCOCC3)n2)CC1 [Example 27] | 1 to 100 | 
CCCCCCn1ncc2nc(N3CCN(C(C)=O)CC3)nc(N[C@H](C)c3cnc4ccccc4c3)c21 [Example 28] | 100 to 1000 | 
CCC(CC)n1ncc2nc(N3CCN(C(C)=O)CC3)nc(N[C@@H](CC)c3cnc4ccccc4c3)c21 [Example 36] | 100 to 1000 | 
CCC(=O)N1CCN(c2nc(N[C@H](C)c3cnc4ccccc4c3)c3c(cnn3C(C)C)n2)CC1 [Example 37] | 1 to 100 | 
CC(C)n1ncc2nc(N3CCNC(=O)C3)nc(N[C@H](C)c3cnc4ccccc4c3)c21 [Example 41] | 100 to 1000 | 
CCn1ncc2nc(N3CCN(C(C)=O)CC3)nc(N[C@H](C)c3cnc4ccccc4c3)c21 [Example 50] | 100 to 1000 | 
CCC(C)n1ncc2nc(N3CCN(C(C)=O)CC3)nc(NC(C)c3ccc(-c4ccccn4)cc3)c21 (stereo not drawn) [Example 53] | 100 to 1000 | 
CCC(CC)n1ncc2nc(N3CCN(C(C)=O)CC3)nc(N[C@@H](C)c3cnc4ccc(F)cc4c3)c21 [Example 54] | 100 to 1000 | 
CCC(CC)n1ncc2nc(N3CCN(C(C)=O)CC3)nc(NC(c3ccc(OCC4CC4)nc3)C3CC3)c21 (stereo not drawn) [Example 63] | 100 to 1000 | 
CC[C@H](C)n1ncc2nc(N3CCN(C(N)=O)CC3)nc(NC(c3ccc4nccn4c3)C3CC3)c21 (stereo partly drawn) [Example 67] | 100 to 1000 | 
CC[C@H](C)n1ncc2nc(N3CCN(C(N)=O)CC3)nc(NC(C)c3n[nH]c4ccccc34)c21 (stereo partly drawn) [Example 71] | 100 to 1000 | 
CC[C@H](C)n1ncc2nc(N3CCN(C(N)=O)CC3)nc(NC(C)c3cc4ccccn4n3)c21 (stereo partly drawn) [Example 73] | 100 to 1000 | 
CC(=O)N1CCN(c2nc(NC(C)c3cnc4ccccc4c3)c3nn(C(C)C)c(C(N)=O)c3n2)CC1 (stereo not drawn) [Example 95] | 100 to 1000 | 
CC(=O)N1CCN(c2nc(NC(C)(C)Cc3ccc(Cl)cc3)c3nn(C(C)C)c(Br)c3n2)CC1 [Example 97] | 1 to 100 | 
CC(=O)N1CCN(c2nc(N[C@H](C)c3cnc4ccccc4c3)c3nn(C(C)C)c(C4CC4)c3n2)CC1 [Example 107] | 1 to 100 | 
CCC(C)n1ncc2nc(-c3cnn(CC(N)=O)c3)nc(N[C@@H](c3cnc4ccccc4c3)C3CC3)c21 (stereo partly drawn) [Example 120] | 100 to 1000 | 
